Values joined by “and” are separate entries in the source; they are usually repeats but may differ in a detail not shown here. Identical values can stand only once.

For orientation: melting point means the temperature of the solid-liquid transition. In turn, `O=C1NC(=O)C(c2ccccc2)(c2ccccc2)N1` [Phenytoin] showed a melting point of 286 °C.

`CC(C)NCC(O)c1cc(O)cc(O)c1` (configuration not stated) [Orciprenaline] registered a melting point of 100 °C.

For `ClCCl` [dichloromethane], the melting point was -95 °C.

`Brc1cc(Br)cc(Br)c1` [1,3,5-tribromobenzene] showed a melting point of 123 °C.

Compound `c1ccc2c(c1)ccc1c3ccccc3ccc21` [chrysene] had a melting point of 254 °C.

With `C(=C/P(=O)(O)O)P(=O)(O)O` [1,2-ethylenediphosphonic acid], the melting point stood at 219 °C.

Consider `O=S1(=O)CCCO1` [1,3-propanesultone], for which the melting point came out at 32 °C.

`Cc1c2ccccc2cc2ccccc12` [9-Methylanthracene]: the melting point came out at 78 °C.

`Nc1ncc(Br)cn1` [2-amino-5-bromopyrimidine] registered a melting point of 233 °C.

As to `C=C(Br)CC1(C(C)C)C(=O)NC(=O)NC1=O` [propallylonal], the melting point was 177 °C.

Consider `CCCCCCCC(=O)OCC` [ethyl octanoate], for which the melting point was -47 °C.

In turn, `CC(=O)c1ccc([N+](=O)[O-])cc1` [p-nitroacetophenone] registered a melting point of 80 °C.

With `CCOC(=O)c1ccc(C#N)cc1` [ethyl_p-cyanobenzoate], the melting point is 54 °C.

As for `O=C(OCCc1cc([N+](=O)[O-])c(CCOC(=O)c2ccccc2)cc1[N+](=O)[O-])c1ccccc1` [(2,5-dinitrobenzene-1,4-diyl)diethane-2,1-diyl dibenzoate], the melting point came out at 158 °C.

With `BrC(Br)C(Br)Br` [1,1,2,2-tetrabromoethane], the melting point was 0 °C.

In turn, `CCCCCCCCCCOc1ccc(/C=N/c2ccc(/C=C/C(=O)OCC)cc2)cc1` registered a melting point of 115 °C.

As to `CS(C)=O` [dimethyl sulfoxide], the melting point amounted to 18 °C.

In the case of `NCCc1ccc(-c2ccccc2)cc1` [2-(4-biphenylyl)ethylamine], the melting point worked out at 52 °C.

Consider `CCN(CC)C(=S)SSC(=S)N(CC)CC` [disulfiram], for which the melting point turned out to be 70 °C.

For the compound `COc1ccc2oc(-c3cc(OC)c(OC)cc3OC)c(O)c(=O)c2c1` [3-hydroxy-2',4',5',6-tetramethoxyflavone], the melting point stood at 202 °C.

`N#CCc1cccc(Br)c1` [3-bromophenylacetonitrile] gave a melting point of 27 °C.

`ClC=C(Cl)Cl` [trichloroethylene] came in with a melting point of -85 °C.

Take `C=CCCCC` [1-hexene]: the melting point is -140 °C.

The compound `Nc1nc2c(ncn2COCCO)c(=O)[nH]1` [acyclovir] had a melting point of 265 °C.

For the compound `COc1cc(NS(=O)(=O)c2ccc(N)cc2)nc(OC)n1` [sulfadimethoxine], the melting point was 204 °C.

For `O=C(O)CCN1C(=O)c2ccccc2C1=O` [3-phthalimidopropionic acid], the melting point came to 152 °C.

As to `C/C(OC/C(=N/NC(N)=O)c1ccccc1)=C(\C#N)c1ccccc1`, the melting point amounted to 157 °C.

Take `O=C1C=C(NCCNc2ccccc2)C(=O)c2ccccc21` [2-{[2-(phenylamino)ethyl]amino}naphthalene-1,4-dione]: the melting point turned out to be 141 °C.

Take `Nc1ncc(Br)cc1Br` [2-amino-3,5-dibromopyridine]: the melting point was 104 °C.

In the case of `O/N=C(/C=C/c1ccccc1)c1ccccc1` [2-Propen-1-one, 1,3-diphenyl-, oxime, (E,Z)-], the melting point was found to be 116 °C.

On to `CCCCCCCBr` [1-bromoheptane], for which the melting point is -56 °C.

The compound `C=CCCCCCC` [1-octene] came in with a melting point of -102 °C.

With `NC(=O)c1ccccc1O` [Salicylamide], the melting point came out at 142 °C.

The compound `CP(C)(C)=S` [trimethylphosphine sulfide] came in with a melting point of 156 °C.

Compound `OB(O)c1ccc(-c2ccccc2)c(F)c1` [2-fluorobiphenyl-4-boronic acid] returned a melting point of 246 °C.

`CC(=O)OCC(=O)[C@@]1(O)CC[C@H]2[C@@H]3CCC4=CC(=O)CC[C@]4(C)[C@H]3C(=O)C[C@@]21C` [cortisone acetate] had a melting point of 222 °C.

Take `O=C(O)c1cc(Cl)ccc1Cl` [2,5-dichlorobenzoic acid]: the melting point was 153 °C.

With `Cc1ccc(C(=O)c2ccccc2C(=O)O)cc1` [2-(4-methylbenzoyl)benzoic acid], the melting point was 140 °C.

`O=C(O)CSCC(=O)NC1CCSC1=O` (configuration not stated) [erdosteine]: the melting point came out at 156 °C.

For `CCCCCCCCCCCC(=O)OCCCC` [N-butyl dodecanoate], the melting point is -10 °C.

`O=C1[C@@H]2[C@H](C(=O)N1O)[C@@H]1C=C[C@H]2C1` [endo-n-hydroxy-5-norbornene-2,3-dicarboximide] had a melting point of 168 °C.

Consider `Clc1cc(Cl)c(-c2ccccc2)cc1Cl` [2,4,5-trichlorobiphenyl], for which the melting point was determined as 78 °C.

`CCCCCCCCCCCCCCCC(=O)OC` [methyl palmitate] displayed a melting point of 31 °C.

The compound `CCCC(C)(COC(N)=O)COC(N)=O` [2-[(Carbamoyloxy)methyl]-2-methylpentyl carbamate] had a melting point of 105 °C.

Regarding `Nc1ccc(O)cc1` [4-Aminophenol], the melting point is 189 °C.

`COc1cc(C(=O)NN)cc(OC)c1O` [3,5-dimethoxy-4-hydroxybenzhydrazide] yielded a melting point of 156 °C.

`N#CC1(c2ccccc2)C=Cc2ccccc21` (configuration not stated) [1-phenyl-1H-indene-1-carbonitrile] came in with a melting point of 77 °C.

In turn, `CCC1C(=O)CCC1=O` [2-ethyl-1,3-cyclopentanedione] came in with a melting point of 169 °C.

As for `Cc1cc(CO)nn1-c1ccccn1` [(5-methyl-1-pyridin-2-yl-1H-pyrazol-3-yl)methanol], the melting point was determined as 45 °C.

With `Cc1ccc(B(O)O)cc1C` [3,4-dimethylbenzeneboronic acid], the melting point stood at 220 °C.

On to `O[C@@H]1OC[C@@H](OCc2ccccc2)[C@@H](OCc2ccccc2)[C@@H]1OCc1ccccc1` [2,3,4-tri-o-benzyl-beta-D-arabinopyranose], for which the melting point was 69 °C.

With `Nc1nc(N)c2nc(-c3ccccc3)c(N)nc2n1` [Triamterene], the melting point is 306 °C.

Consider `Oc1cc2ccccc2cc1O` [2,3-dihydroxynaphthalene], for which the melting point amounted to 164 °C.

For `COc1ccc([C@@H]2CC(=O)c3c(O)cc(O)cc3O2)cc1O` [hesperetin], the melting point came out at 228 °C.

For `O=C(C=Cc1ccccc1)C=Cc1ccccc1` [1,5-Diphenylpenta-1,4-dien-3-one], the melting point is 111 °C.

Consider `CC1(C)C(=O)NC(=O)N1CO` [1-hydroxymethyl-5,5-dimethylhydantoin], for which the melting point came out at 105 °C.

`CN1CCC(CN2c3ccccc3Sc3ccccc32)C1` (configuration not stated) [methdilazine] returned a melting point of 87 °C.

`C=CCOc1nc(OCC=C)nc(OCC=C)n1` [2,4,6-tris(allyloxy)-1,3,5-triazine] returned a melting point of 27 °C.

As to `O=C1Nc2c(Cl)ccc(Cl)c2C1=O` [4,7-dichloroisatin], the melting point was found to be 248 °C.

Turning to `CCOC(=O)c1c(O)cc(C)nc1O` [ethyl 2,4-dihydroxy-6-methylnicotinate], the melting point turned out to be 212 °C.

For `O=C(O)c1cccc(Br)c1` [m-bromobenzoic acid], the melting point is 157 °C.

`O=[N+]([O-])c1ccc(Cl)cc1` [1-chloro-4-nitrobenzene] yielded a melting point of 84 °C.

Consider `C/C=C/c1ccc(OC)cc1` [trans-anethole], for which the melting point came out at 23 °C.

Regarding `COc1ccc(/C=C/[N+](=O)[O-])cc1OC` [3,4-dimethoxy-beta-nitrostyrene], the melting point was determined as 140 °C.

`CC1=CC(=O)CC(C)(C)C1` [3,5,5-Trimethylcyclohex-2-en-1-one]: the melting point was -8 °C.

For the compound `COc1ccc(/C=C/c2cccc(OC)c2O)cc1OC` [2-[(E)-2-(3,4-Dimethoxyphenyl)vinyl]-6-methoxyphenol], the melting point came to 165 °C.

Regarding `C/C(C)=CC=C(/C)C` [2,5-dimethyl-2,4-hexadiene], the melting point turned out to be 13 °C.

Consider `CCNc1nc(NC(C)(C)C)nc(SC)n1` [terbutryne], for which the melting point is 104 °C.

The compound `Clc1ccccc1I` [o-chloroiodobenzene] gave a melting point of 1 °C.

In the case of `C#C[C@]1(O)CC[C@H]2[C@@H]3CCC4=CC(=O)CC[C@@H]4[C@H]3CC[C@@]21CC` [Levonorgestrel], the melting point is 236 °C.

Consider `CC(=O)Oc1ccccc1O` [catechol_monoacetate_(ortho)], for which the melting point amounted to 57 °C.

As for `O=C(/C(=N/Nc1cccnc1)C(=O)C(F)(F)F)c1cccs1`, the melting point turned out to be 151 °C.

In turn, `Nc1ccc(Br)cc1Br` [2,4-dibromoaniline] had a melting point of 80 °C.

`c1ccc(CCc2ccccc2)cc1` [Bibenzyl] returned a melting point of 52 °C.

As to `O=[N+]([O-])c1ccccc1O` [2-nitrophenol], the melting point is 44.8 °C and 44.5 °C and 44 °C.

Regarding `CC(=O)OCC(COC(C)=O)OC(C)=O` [Propane-1,2,3-triyl triacetate], the melting point turned out to be 3 °C.

The compound `Cc1ccccc1Cc1ccccc1` [2-methyldiphenylmethane] showed a melting point of 7 °C.

Compound `O=C(/C=C/c1ccccc1)c1ccc(O)cc1` [4'-hydroxychalcone] returned a melting point of 176 °C.

Consider `c1cncnc1` [pyrimidine], for which the melting point was determined as 21 °C.

The compound `c1ccc(NNc2ccccc2)cc1` [hydrazobenzene] displayed a melting point of 125 °C.

Regarding `CC(=O)c1ccc(C#N)cc1` [p-acetyl_benzonitrile], the melting point came to 59 °C.

Take `CCCCCCCCCC` [decane]: the melting point is -30 °C and -29.8 °C.

Turning to `CCCCc1ccc(C(N)=O)cc1` [4-n-butylbenzamide], the melting point was determined as 128 °C.

Compound `C=C1C(=O)C23C(OC(C)=O)CC4C(C)(C)CCC(OC(C)=O)C4(C)C2C(OC(C)=O)CC1C3OC(C)=O` (configuration not stated) [15-oxokaur-16-ene-1,7,11,14-tetrayl tetraacetate] displayed a melting point of 237 °C.

Compound `Cc1ccc(N)c(N)c1` [3,4-diaminotoluene] showed a melting point of 88 °C.

In the case of `Clc1c2ccccc2cc2ccccc12` [9-chloroanthracene], the melting point was 104 °C.

`CC(Oc1cc(Cl)c(Cl)cc1Cl)C(=O)O` (configuration not stated) [2-(2,4,5-Trichlorophenoxy)propanoic acid]: the melting point is 176 °C.

(Values after the Bradley open melting point set (2014).)
